What was measured:
β-catenin/Tcf-4 = test: cells; format: cell-based; settings: 24 hours of incubation with compound, ratio Firefly/Renilla luciferase
How it was run: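 SW480-derived lines with integrated reporters (Tcf-4-driven firefly luciferase; SV40 firefly as specificity control; SV40 Renilla for cell number/toxicity), treated 24 hours with titrated compounds, final 0.316% DMSO. Dual-luciferase read-out; firefly/Renilla ratio as % of control, duplicate plates, IC50 (nM) from curve fit.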

SV40-Luc = SV40-Luc control luciferase reporter assay, SV 5A8 cell line (SV40-Luc and SV40-R-Luc), control for non-specific inhibitors; format: cell-based, human; settings: SV 5A8 cells derived from SW480, 24 hours of incubation with compound, ratio Firefly/Renilla luciferase
How it was run: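 SW480 cells, stably integrated reporters; SV 5A8 = SV40-firefly + SV40-Renilla control line, Tcf 33.13/Tcf 22C11 = Tcf-4-firefly + SV40-Renilla. Cpd titration, 24 h, 0.316% DMSO final. Dual-Luc/Dual-Glo read; F/R ratio (% ctrl, duplicate plates) → IC50.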

[1] = Homo sapiens, SW480, 24 h, Tcf 33.13 cells derived from SW480
[2] = Homo sapiens, Tcf22C11, 24 h, Tcf 22C11 cells derived from SW480
[3] = Tcf 22C11 cells derived from SW480
[4] = Tcf 33.13 cells derived from SW480

Compound | IC50 (β-catenin/Tcf-4; [1]) | IC50 (β-catenin/Tcf-4; [2]) | IC50 (SV40-Luc; Homo sapiens, SV5A8, 24 h) | IC50 (β-catenin/Tcf-4; [3]) | IC50 (β-catenin/Tcf-4; [4]) | IC50 (SV40-Luc)
CN(C)CC#Cc1ccc2nc(N(C)C)nc(NCc3ccc(NC(=O)c4ccc(F)cc4)cc3)c2c1 [Example 69, N-{4-[({2-(dimethylamino)-6-[3-(dimethylamino)prop-1-yn-1-yl]quinazolin-4-yl}amino)methyl]phenyl}-4-fluorobenzamide] | 1940 nM | 2010 nM | > 20100 nM | – | – | –
CNc1nc(NCc2ccc(NC(=O)c3ccc(Cl)c(Cl)c3)cc2)c2cc(C)ccc2n1 [Example 37, 3,4-dichloro-N-[4-({[6-methyl-2-(methylamino)quinazolin-4-yl]amino}methyl)phenyl]benzamide] | 5280 nM | > 10700 nM | > 21400 nM | – | – | –
CNc1nc(NCc2ccc(NC(=O)c3ccc(F)cc3F)cc2)c2cc(C)ccc2n1 [Example 34, 2,4-difluoro-N-[4-({[6-methyl-2-(methylamino)quinazolin-4-yl]amino}methyl)phenyl]benzamide] | 3230 nM | 4190 nM | > 11500 nM | – | – | –
Cc1ccc2nc(N3CCCCC3)nc(NCc3ccc(NC(=O)c4ccc(F)cc4)cc3)c2c1 [Example 42, 4-fluoro-N-(4-{[(6-methyl-2-piperidin-1-ylquinazolin-4-yl)amino]methyl}phenyl)benzamide] | 2940 nM | 9250 nM | > 10600 nM | – | – | –
CNc1nc(NCc2ccc(NC(=O)c3ccc(Cl)cc3Cl)cc2)c2cc(C)ccc2n1 [Example 19, 2,4-dichloro-N-[4-({[6-methyl-2-(methylamino)quinazolin-4-yl]amino}methyl)phenyl]benzamide] | 12800 nM | > 21400 nM | > 21400 nM | – | – | –
CN(C)c1nc(NCc2ccc(NC(=O)c3ccc(F)cc3)cc2)c2ccc(-c3ccc(C=O)cc3)cc2n1 [Example 99, N-[4-({[2-(dimethylamino)-7-(4-formylphenyl)quinazolin-4-yl]amino}methyl)phenyl]-4-fluorobenzamide] | 2680 nM | 6820 nM | > 17900 nM | – | – | –
CC(C)c1ccc2c(NCc3ccc(NC(=O)c4ccc(F)cc4)cc3)nc(N(C)C)nc2c1 [Example 61, N-[4-({[2-(dimethylamino)-7-isopropylquinazolin-4-yl]amino}methyl)phenyl]-4-fluorobenzamide] | 327 nM | 532 nM | > 5060 nM | – | – | –
Cc1cc(C)c2nc(N3CCN(C)CC3)nc(NCc3ccc(NC(=O)c4ccc(F)cc4)cc3)c2c1 [Example 49, N-[4-({[6,8-dimethyl-2-(4-methylpiperazin-1-yl)quinazolin-4-yl]amino}methyl)phenyl]-4-fluorobenzamide] | > 2510 nM | > 2510 nM | > 10000 nM | – | – | –
Cc1ccc2nc(N3CC=CC3)nc(NCc3ccc(NC(=O)C4CCN(Cc5ccccc5)CC4)cc3)c2c1 [Example 80, 1-benzyl-N-[4-({[2-(2,5-dihydro-1H-pyrrol-1-yl)-6-methylquinazolin-4-yl]amino}methyl)phenyl]piperidine-4-carboxamide] | 597 nM | 761 nM | > 9390 nM | – | – | –
N-(4-{[(2-azetidin-1-yl-7-methylquinazolin-4-yl)amino]methyl}phenyl)-1-benzylpiperidine-4-carboxamide [Example 137] | – | – | – | 1260 nM | 1130 nM | > 17300 nM
CNc1nc(NCc2ccc(NC(=O)c3ccc(Cl)cc3)cc2)c2cc(C)cc(C)c2n1 [Example 29, 4-chloro-N-[4-({[6,8-dimethyl-2-(methylamino)quinazolin-4-yl]amino}methyl)phenyl]benzamide] | 756 nM | 988 nM | > 2800 nM | – | – | –
N-[4-({[6-nitro-2-(methylamino)quinazolin-4-yl]amino}methyl)phenyl]nicotinamide [Example 188] | – | – | – | > 23300 nM | > 23300 nM | > 23300 nM

Continued, values first:

IC50 (β-catenin/Tcf-4; [1]) | IC50 (β-catenin/Tcf-4; [2]) | IC50 (SV40-Luc; Homo sapiens, SV5A8, 24 h) | IC50 (β-catenin/Tcf-4; [3]) | IC50 (β-catenin/Tcf-4; [4]) | IC50 (SV40-Luc) | Compound
3190 nM | 1960 nM | > 12000 nM | – | – | – | Cc1ccc2c(NCc3ccc(NC(=O)c4ccc(F)cc4)cc3)nc(N3CCN(Cc4ccc5c(c4)OCO5)CC3)nc2c1 [Example 215, N-{4-[({2-[4-(1,3-benzodioxol-5-ylmethyl)piperazin-1-yl]-7-methylquinazolin-4-yl}amino)methyl]phenyl}-4-fluorobenzamide]
825 nM | 1340 nM | > 9360 nM | – | – | – | CN(C)c1nc(NCc2ccc(NC(=O)c3ccc(F)cc3)cc2)c2ccc(/C=C/C(C)(C)C)cc2n1 [Example 102, N-{4-[({2-(dimethylamino)-7-[(1E)-3,3-dimethylbut-1-en-1-yl]quinazolin-4-yl}amino)methyl]phenyl}-4-fluorobenzamide]
372 nM | 429 nM | > 10100 nM | – | – | – | Cc1ccc2c(N[C@H](C)c3ccc(NC(=O)c4ccc(Cl)nc4)cc3)nc(N(C)C)nc2c1 [Example 270, (R)-6-chloro-N-(4-(1-(2-(dimethylamino)-7-methylquinazolin-4-ylamino)ethyl)phenyl)nicotinamide]
962 nM | 650 nM | > 10500 nM | – | – | – | Cc1ccc2c(NCc3ccc(NC(=O)C4CCN(CC(C)C)CC4)cc3)nc(N(C)C)nc2c1 [Example 244, N-[4-({[2-(dimethylamino)-7-methylquinazolin-4-yl]amino}methyl)phenyl]-1-isobutylpiperidine-4-carboxamide]
1470 nM | 3780 nM | > 8210 nM | – | – | – | C[C@H](Nc1nc(N(C)C)nc2cc(I)ccc12)c1ccc(NC(=O)c2ccc(Cl)nc2)cc1 [Example 105, 6-chloro-N-[4-((1S)-1-{[2-(dimethylamino)-7-iodoquinazolin-4-yl]amino}ethyl)phenyl]nicotinamide]
494 nM | 653 nM | > 2490 nM | – | – | – | CNc1nc(N[C@H](C)c2ccc(NC(=O)c3ccc(F)cc3)cc2)c2cccc(C)c2n1 [Example 276, (R)-4-fluoro-N-(4-(1-(8-methyl-2-(methylamino)quinazolin-4-ylamino)ethyl)phenyl)benzamide]
1030 nM | 1070 nM | > 9170 nM | – | – | – | Cc1ccc2nc(N(C)C)nc(NCc3ccc(NC(=O)C4CCN(Cc5ccccc5)CC4)cc3)c2c1 [Example 148, 1-benzyl-N-[4-({[2-(dimethylamino)-6-methylquinazolin-4-yl]amino}methyl)phenyl]piperidine-4-carboxamide]
986 nM | 894 nM | > 5420 nM | – | – | – | Cc1ccc2c(N[C@H](C)c3ccc(NC(=O)c4ccc(F)cc4)cc3)nc(N(C)C)nc2c1 [Example 272, (R)—N-(4-(1-(2-(dimethylamino)-7-methylquinazolin-4-ylamino)ethyl)phenyl)-4-fluorobenzamide]
193 nM | 204 nM | > 1270 nM | – | – | – | Cc1ccc2c(NCc3ccc(NC(=O)c4ccc(Br)cc4)cc3)nc(N(C)C)nc2c1 [Example 239, 4-bromo-N-[4-({[2-(dimethylamino)-7-methylquinazolin-4-yl]amino}methyl)phenyl]benzamide]
2120 nM | 2280 nM | > 8420 nM | – | – | – | Cc1ccc2c(NCc3ccc(NC(=O)C4CCN(Cc5ccccc5)CC4)cc3)nc(N3CCNC(CCO)C3)nc2c1 (stereo not drawn) [Example 138, 1-benzyl-N-{4-[({2-[3-(2-hydroxyethyl)piperazin-1-yl]-7-methylquinazolin-4-yl}amino)methyl]phenyl}piperidine-4-carboxamide]
332 nM | 674 nM | > 1340 nM | – | – | – | O=C(Nc1ccc(CNc2nc(NCc3ccco3)nc3ccccc23)cc1)c1ccc(F)cc1 [Example 124, 4-fluoro-N-{4-[({2-[(2-furylmethyl)amino]quinazolin-4-yl}amino)methyl]phenyl}benzamide]
782 nM | 805 nM | > 9600 nM | – | – | – | Cc1ccc2c(NCc3ccc(NC(=O)C4CCN(Cc5ccccc5)CC4)cc3)nc(N3CCC3)nc2c1 [Example 134, N-(4-{[(2-azetidin-1-yl-7-methylquinazolin-4-yl)amino]methyl}phenyl)-1-benzylpiperidine-4-carboxamide]
382 nM | 376 nM | > 2390 nM | – | – | – | Cc1ccc2c(NCc3ccc(NC(=O)c4ccc(Cl)cc4)cc3)nc(NCCc3ccccn3)nc2c1 [Example 197, 4-chloro-N-{4-[({7-methyl-2-[(2-pyridin-2-ylethyl)amino]quinazolin-4-yl}amino)methyl]phenyl}benzamide]
1080 nM | 970 nM | > 5640 nM | – | – | – | Cc1ccc2c(N[C@@H](C)c3ccc(NC(=O)c4ccc(F)cc4)cc3)nc(N(C)C)nc2c1 [Example 271, (S)—N-(4-(1-(2-(dimethylamino)-7-methylquinazolin-4-ylamino)ethyl)phenyl)-4-fluorobenzamide]
– | – | – | 2940 nM | 4280 nM | > 19300 nM | CN(C)c1nc(NCc2ccc(NC(=O)c3ccc(F)cc3)cc2)c2cc(/C=C\c3ccccc3)ccc2n1 [Example 171]
1330 nM | 1580 nM | > 17700 nM | – | – | – | Cc1ccc2c(NCc3ccc(NC(=O)C4CCN(Cc5ccccc5)CC4)cc3)nc(N3CCN(C)CC3)nc2c1 [Example 141, 1-benzyl-N-[4-({[7-methyl-2-(4-methylpiperazin-1-yl)quinazolin-4-yl]amino}methyl)phenyl]piperidine-4-carboxamide]

Source: patent US20090004185A1, “AMINO-SUBSTITUTED QUINAZOLINE DERIVATIVES AS INHIBITORS OF BETA-CATENIN/TCF-4 PATHWAY AND CANCER TREATMENT AGENTS” (WYETH, priority 2007, published 2009)
